Reference: patent publication US8337907B2, “Use of volatile oil from plants in preparing medicaments for preventing and treating diabetes” (priority 2007, dated 2012)
Read-outs that look alike come from different tables or passages of the source.

What was measured:
[1] = cited from earlier work
[2] = water, ethanol; cited from earlier work
healthy volunteers = experiment: test to healthy volunteers; type: in vivo, human; settings: for postprandial blood glucose peak at breakfast: 0.9 ml at three meals daily, 7 days
Protocol: A person, Healthy have not any disease.
A person, healthy without any disease. fasting blood glucose was waved in 5.0-5.4 mmol/L (79-96 mg/dl), in postprandial blood glucose 8-12.2 mmol/L ([…]) between. Abnormal glucose tolerance test.

type 2 diabetes patients = settings: for postprandial blood glucose peak at breakfast: 0.9 ml at three meals daily, 7 days
Description: Patient keep measurable middling food and drink in the interim.

[3] = tested on: type 2 diabetes rat model; experiment: test of type 2 diabetes rat model (streptozotocin, fast-generated NIDDM model); type: in vivo, Wistar rats; set-up: unit not given here; settings: 2.4 ml/kg intubated, fasting 4 hours, blood 2 hours after dose; before treatment 27.14 ± 1.154; p<0.01
[4] = tested on: delayed type diabetic Wistar rat model (type 1 diabetes); experiment: delayed type streptozotocin plus CFA/IFA type 1 diabetes rat model; type: in vivo, Wistar rats; set-up: unit not given here; settings: table: d-limonene 0.8 ml/kg; fasting 4 hours, 2 hours after dose; before treating 24.4 ± 2.958; p<0.01
healthy rats = experiment: blood glucose of healthy rats; settings: rat, in vivo
[5] = tested on: drug-induced diabetic rats; experiment: blood glucose in drug-induced diabetic rats, summary statement; type: in vivo; settings: oral 0.8-2.4 ml/kg, within 0.5-2 hours
Description: The present invent can reduce fasting blood glucose of that severe case streptozotocin-induced rats of type 1 and type 2 diabetes.

[6] = tested on: type 1 diabetes rat model (IDDM); experiment: test of type 1 diabetes rat model (streptozotocin, day 3-6 after injection); type: in vivo, rats; settings: 2.4 ml/kg intubated, 2 hours after dose
Description: Establishment of a type 1 diabetes rat test model. Recent years, more people have definitely expressed that viewed streptozotocin-induced of diabetes test model. Although, it is a model of type 1 diabetes in principle, but can using as a model of type 2 diabetes.

[7] = Example 6 patient, treatment for 12 weeks
[8] = Example 7 patient, 7 days treatment

SMILES: C=C(C)C1CC=C(C)CC1 (stereo not shown) [Limonene, 1-methyl-4-prop-1-en-2-yl-cyclohexene]
- Perilla acid methyl ester and Dihydrotestosterone Perilla acid methyl ester in plasma ([1]; from initial limonene, after oral administration): 5%
- eliminated in the CO2 exhaled ([1]; in vivo): 2%
- eliminated in the dejecta ([1]; in vivo): 5%
- converted to primary metabolites Dihydrotestosterone acid Perilla and Perilla acid ([1]; of limonene in plasma): about 35%
- converted to limonene 1,2-diol ([1]; of the initial volume): about 18%
- eliminated in the urine ([1]; within 24 hours): about 60%
- solubility [2]: do not in water but in ethanol

SMILES: C=C(C)[C@H]1CC=C(C)CC1 [d-limonene, (4R)-1-methyl-4-prop-1-en-2-ylcyclohexene]
- blood glucose compared before and after treatment (healthy volunteers; Example 8, healthy person): blood glucose basically unchanged
- time of postprandial blood glucose peak (healthy volunteers; Example 8, healthy person): 0.5 h
- postprandial blood glucose peak at breakfast (healthy volunteers; Example 8, healthy person): 6.3 to 8.4 mmol/L
- blood glucose compared before and after treatment (healthy volunteers; Example 9, person): blood glucose basically unchanged
- time of postprandial blood glucose peak (healthy volunteers; Example 9, person): 0.5 h
- postprandial blood glucose peak at breakfast (healthy volunteers; Example 9, person, abnormal glucose tolerance test, before 8-12.2 mmol/L): 10.3 to 11.7 mmol/L
- effect on postprandial or fasting blood glucose level in healthy (healthy volunteers; human, in vivo): do not reduce postprandial or fasting blood glucose level
- absorption from the gastrointestinal ([1]; after oral administration): absorbed rapidly
- absorbed drug excreted by the urethra ([1]; within 48 hours): 75-95%
- postprandial blood glucose peak at breakfast (type 2 diabetes patients; Example 6 patient, before: under 15.6 mmol/L): 11.8 mmol/L
- hypoglycemic reaction without food (type 2 diabetes patients; Example 6 patient, 6-8 hours after the meal, after 12 weeks): have not hypoglycemic reaction
- time of postprandial blood glucose peak (type 2 diabetes patients; Example 6 patient, 7 days treatment): 1.25 h
- peak value time (type 2 diabetes patients; [7]): 0.75 h
- postprandial blood glucose peak value (type 2 diabetes patients; [7]): 10.4 mmol/L
- postprandial blood glucose peak at breakfast (type 2 diabetes patients; Example 7 patient, before: maximum 23 mmol/L): 18.7 mmol/L
- blood glucose level average reduce, before to after treating (type 2 diabetes patients; [8]): 6.99 mmol/L
- time of postprandial blood glucose peak (type 2 diabetes patients; [8]): 1.25 h
- effect on postprandial blood glucose levels (type 2 diabetes patients; type 2 diabetes patients, 0.9 ml after three meals daily): clear and stably reduce postprandial blood glucose levels
- fasting glucose after treatment [3]: 19.39 ± 6.064
- fasting glucose after treating [4]: 17.45 ± 1.886
- effect on blood glucose of healthy rats (healthy rats): do not reduce blood glucose of healthy rats
- effect on blood glucose level [5]: blood glucose level reduce a lot
- Blood glucose, First day ([6]; IDDM group 25.27 ± 2.632, p<0.01): 20.26 ± 5.039 mmol/L
- Blood glucose, Four day ([6]; IDDM group 25.97 ± 2.966, p>0.05): 23.32 ± 4.891 mmol/L
- Blood glucose, Third day ([6]; IDDM group 26.08 ± 3.896, p<0.05): 21.88 ± 5.754 mmol/L
- Blood glucose, 1-4 days Average ([6]; IDDM group 26.17 ± 2.858, p<0.05): 21.89 ± 5.230 mmol/L
- Blood glucose, Second day ([6]; IDDM group 27.36 ± 1.243, p<0.01): 22.08 ± 5.421 mmol/L
